Read-outs that look alike come from different tables or passages of the source.

The nature of data set [1]: Skin sensitivity: repeated occlusive patch test, nine inductive patchings and a challenge. It counts as in vivo. Conditions: 5% dilution in corn oil, 111 subjects. As for the experimental part: Reactions were scored 24 and 48 hours after application.
Data set [2] concerns Propionibacterium acne. Briefly: Zone of inhibition (agar well diffusion technique). It counts as cell-based. As for the experimental part:
(§1) Two series of tests were conducted to evaluate the bioefficacy of bakuchiol, salicylic acid and the combination of the two against Propionibacterium acne. The first evaluated the median inhibitory concentration (IC50) of each of the two actives in order to set the dosing for the second test. The second test ascertained the bioefficacy, as represented by the zone of inhibition, of each active and their combination in relation to P. acne. In both sets of tests, inoculums of 1.0 x 10^6 cfu/ml P. acne were used.
Agar plates were prepared by first pouring sterile molten agar into petriplates to a depth of 6mm. After allowing the agar to solidify sufficiently, a well of 10 mm diameter was prepared by carefully punching and removing a 10 mm diameter plug of agar without lifting the surrounding medium. In this experiment, all cultures used were adjusted to the turbidity of 0.5 McFarland per the standard procedure and then 0.1 ml of each culture was spread plated onto the agar plates. Appropriate controls were maintained.
Stock solutions of the actives to be tested were prepared by dissolving 1 mg of each of the actives, Sytenol A bakuchiol and salicylic acid, in separate 5 ml quantities of dimethyl sulfoxide (DMSO) at room temperature: though slight warming was employed to expedite the dissolution of the salicylic acid. These stock solutions were then diluted or mixed and diluted to produce sample solutions having the concentrations of each active as noted in Table 4 and the well of each plate filled with the appropriate solution by capillary pipette. Nothing was placed in the well of the control.
Following inoculation and addition of the test sample to the well, each plate was then covered and incubated for 48 hours at 37 °C. Following incubation, the plates were removed and the zones of inhibition recorded and tabulated. […] When both actives were present at one-half the median inhibitory concentration, […] (Sample F); however, it seemed that the apparent ineffectiveness of the salicylic acid at this level appeared to offset or counteract the effectiveness of the bakuchiol. Consequently, at least for salicylic acid, at least one-half and preferably at least the median inhibitory concentration of the dermatological acid should be used.
Background: Agar diffusion results depend on both activity and mobility in agar.

Data set [3] relates to Propionibacterium acne. Briefly: Median inhibitory concentration (IC50) in BHI broth, reading at 610 nm. It counts as cell-based. As for the experimental part: as §1
P. acne organisms were inoculated into Brain Heart Infusion (BHI) broth and incubated at 37°C for 24 hrs. Thereafter, the culture was serially diluted to a 10^-6 dilution. 100 µl aliquots of the 10^-6 dilution culture were then added to sterile test tubes containing 10 ml fresh BHI broth serial solutions of bakuchiol or salicylic acid. The serial solutions contained either active at from 0.5 to 50 µg/ml concentrations in 0.5 µg/ml increments, i.e., 0.5, 1.0, 1.5,..., 50.0 µg/ml. An inoculated control, free of either active, was also evaluated. The inoculated test tubes were then incubated at 37°C for 48 hrs. UV spectrophotometric readings were then made of each test tube at 610 nm and the values plotted.

Data set [4] has as its system Clostridium collagenase IV. Briefly: Collagenase inhibitory activity (Enzcheck kit, quenched fluorescent gelatin). It counts as biochemical. On the procedure: In order to ascertain whether other benefits may be attained by the use of meroterpenes in skin care formulations, a study was conducted on the impact, if any, the presence of bakuchiol may have on collagenase: a collagenolytic enzyme responsible for much of the collagen damage associated with UV exposure and photoaging in general. Collagenase activity was measured with an Enzcheck kit from Molecular Probes (Carlsbad, CA, USA) using quenched fluorescent gelatin and Clostridium collagenase IV, a generic metalloproteinase. Test material (aqueous solutions 1000ug/ml, 100ug/ml, 10ug/ml and 1ug/ml made from 10mg/ml stock in DMSO) was incubated in the presence of collagenase substrate - quenched fluorescin-linked gelatin and in the presence of the proteolytic enzyme. Phenanthroline, a potent metalloprotease (MP) inhibitor was used as positive control at 100ug/ml. The kinetics of the release of the digested, fluorescent gelatin were measured at excitation/emission wavelengths of 485/530nm with Millipore Cytofluor 2350 microfluorometer.

Data set [5] has as its target T1, human neutrophil elastase (Homo sapiens, UniProt P08246).
T1 construct: purchased Calbiochem of San Diego, CA, US 324681
T1 sequence (P08246 30-247 limits assumed): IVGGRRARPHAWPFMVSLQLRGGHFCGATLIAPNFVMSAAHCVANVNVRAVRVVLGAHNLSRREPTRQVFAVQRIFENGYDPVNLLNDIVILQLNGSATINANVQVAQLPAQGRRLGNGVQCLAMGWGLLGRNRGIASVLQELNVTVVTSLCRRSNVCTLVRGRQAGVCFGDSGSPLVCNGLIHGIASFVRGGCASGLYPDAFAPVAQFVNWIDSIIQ
The experiment in a line: Elastase inhibitory activity (colorimetric substrate Suc-Ala-Ala-Ala-pNA, 410 nm). The format is biochemical. Conditions: for remaining activity at 1 µg/mL: 1 ug/ml; for remaining activity at 1 µg/mL / remaining activity at 5 µg/mL / remaining activity at 25 µg/mL: average of three runs, water = 100, read-out: Elastase Activity (% of Control); for remaining activity at 5 µg/mL: 5 ug/ml; for remaining activity at 25 µg/mL: 25 ug/ml; for elastase inhibitory effect: at the concentrations tested.

As a reminder, the zone of inhibition is the extent of the growth-free halo in a diffusion test. By IC50 is commonly meant the midpoint of a concentration-inhibition curve. Take `C=C[C@@](C)(/C=C/c1ccc(O)cc1)CCC=C(C)C` [Bakuchiol]: in data set [1], the primary irritation result is recorded as “NON-PRIMARY IRRITANT” and the sensitization entry is on record as “NON-PRIMARY SENSITIZER”. Moreover, the zone of inhibition at 0.3 µg/mL in the data set on Propionibacterium acne [2] (Propionibacterium, Sample A: Bakuchiol 0.3 µg/ml) amounted to 35 mm. Also, the zone of inhibition at 0.6 µg/mL in the data set with Propionibacterium acne [2] (Propionibacterium, Sample B: Bakuchiol 0.6 µg/ml) was determined as 37 mm. Besides, the IC50 in the data set on Propionibacterium acne [3] (48 hrs at 37°C, read-out: IC50) came to 0.6 µg/mL. Also, the “Collagenase median inhibitory concentration (IC50)” value in data set [4] is ~0.1 % (w/w). In addition, in data set [5], the remaining activity at 1 µg/mL stood at 31%, the remaining activity at 5 µg/mL was 65%, the remaining activity at 25 µg/mL is 77% and the elastase inhibitory effect entry is on record as “clear elastase inhibition at all concentrations tested”.
Turning to `CC1=C(/C=C/C(C)=C/C=C/C(C)=C/CO)C(C)(C)CCC1` [Retinol, reference compound], in data set [5], the remaining activity at 1 µg/mL is 87%, the remaining activity at 5 µg/mL was 138%, the remaining activity at 25 µg/mL was found to be 416% and the elastase inhibitory effect result was “no statistically significant elastase inhibitory effect”.
As to `O=C(O)c1ccccc1O` [Salicylic acid, 2-hydroxybenzoic acid], in the data set with Propionibacterium acne [2] (Propionibacterium), the zone of inhibition at 29 µg/mL stood at 12 mm and the zone of inhibition at 58 µg/mL came out at 12 mm. Further, the “Zone of Inhibition” value with Propionibacterium acne [2] (Sample C: Salicylic acid 14.5 µg/ml) is given as “No Inhibition”. Moreover, the IC50 in the data set with Propionibacterium acne [3] (48 h) was 29 µg/mL.

For the origin of these results see patent EP2144590B1, “SKIN TREATMENT COMPOSITIONS AND METHODS” (Sytheon Ltd., priority 2007, dated 2008).
